Results from patent US8753838B2, “Method for producing alcohol using bioethanol waste fermented solution” (Korea Institute of Science and Technology, priority 2010, dated 2014).
Entries after “also recorded” stand apart in the source; their conditions may differ.

How the values were obtained:
[1] = tested on: Clostridium pasteurianum (C. pasteurianum DSM 525); test: Alkaline agent for pH control of medium: growth and butanol production of Clostridium pasteurianum (Example 4); assay type: cell-based; settings: for cell growth (order of alkaline agents): medium of Example 1 with 10 g/L lactic acid, pH adjusted to 6.5 using each alkaline agent
From the text: In the experiment for evaluating the effect of lactic acid, acetic acid and ethanol on the growth of Clostridium pasteurianum (C. pasteurianum DSM 525), sodium hydroxide (NaOH) was used to adjust the pH of the medium. Since the ethanol waste fermented solution has a pH of 4-5, the pH needs to be controlled using an alkaline agent in order to produce butanol using the Clostridium pasteurianum (C. pasteurianum DSM 525). In addition to sodium hydroxide, potassium hydroxide (KOH), calcium hydroxide (Ca(OH)2), ammonia water (NH4OH), etc. are available as the alkaline agent. It was investigated whether the growth of Clostridium pasteurianum (C. pasteurianum DSM 525) is affected by the alkaline agents. For this purpose, after adding lactic acid (10 g/L) to the medium of Example 1, pH was adjusted to 6.5 using each alkaline agent.

[2] = tested on: Clostridium pasteurianum (DSM 525); test: Effect of lactic acid, acetic acid and ethanol on growth and butanol production of Clostridium pasteurianum in glycerol medium (Example 1); assay type: cell-based; settings: for inhibition of the growth of Clostridium pasteurianum (OD600): added to the medium up to 10 g/L, pH 6.5, 37° C.
Protocol: The butanol-producing bacterium Clostridium pasteurianum (DSM 525) was acquired from the DSMZ (Germany). The medium used for experiment was prepared with primarily distilled water (1 L) by adding the following ingredients: glycerol (30 g), K2HPO4 (0.5 g), KH2PO4 (0.5 g), MnSO4.H2O (0.01 g), MgSO4.7H2O (0.2 g), FeSO4.7H2O (0.01 g), NaCl (0.01 g), yeast extract (1 g), (NH4)2SO4 (2 g), MES (19.52 g), biotin (0.00001 g), thiamine (0.001 g) and p-aminobenzoic acid (0.001 g).
After adding lactic acid (C3H6O3, 0-14.6 g/L), acetic acid (C2H4O2, 0-10 g/L) or ethanol (C2H60, 0-20 g/L) to the medium, the pH was adjusted to 6.5 using potassium hydroxide (KOH) or sodium hydroxide (NaOH). After placing the medium (50 mL) in a 125-mL serum bottle and removing oxygen by blowing in argon gas, the bottle was sealed with a butyl rubber stopper and an aluminum cap. After sterilizing under high pressure and inoculating Clostridium pasteurianum cultured for 1-2 days at 5% (v/v), the bacterium was cultured at 37° C. while shaking at 130 rpm.
The cell growth was determined by measuring absorbance (optical density) at 600 nm (OD600).

| SMILES | cell growth (order of alkaline agents) [1] | inhibition of the growth of Clostridium pasteurianum (OD600) [2] | further results |
| --- | --- | --- | --- |
| [Ca+2].[OH-].[OH-] [calcium hydroxide, calcium hydroxide (Ca(OH)2)] | faster in the order of calcium hydroxide, potassium hydroxide, ammonia water and sodium hydroxide | – | – |
| CC(O)C(=O)O (stereo not drawn) [Lactic acid, lactic acid] | – | did not result in severe inhibition | production of butanol ([2]; lactic acid added (10 g/L or less) compared to when not added): improved butanol-producing effect; also recorded: improved production of butanol |
| N [ammonia water, ammonia water (NH4OH)] | faster in the order of calcium hydroxide, potassium hydroxide, ammonia water and sodium hydroxide | – | – |
| CCO [ethanol] | – | did not result in severe inhibition | – |
| [K+].[OH-] [potassium hydroxide, potassium hydroxide (KOH)] | faster in the order of calcium hydroxide, potassium hydroxide, ammonia water and sodium hydroxide | – | – |
| [Na+].[OH-] [sodium hydroxide, sodium hydroxide (NaOH)] | faster in the order of calcium hydroxide, potassium hydroxide, ammonia water and sodium hydroxide | – | – |
| [Na] [sodium] | – | – | growth of the microorganism ([1]; as compared to potassium): inhibits the growth |
| CC(=O)O [acetic acid] | – | did not result in severe inhibition | – |
